Measured values reported in patent US20240335431A1, “1-H-PYRROLO[2,3-c]PYRIDINE COMPOUNDS” (Acerta Pharma B.V., priority 2023, published 2024).
Like-named read-outs stand apart in the source and are kept apart here.

Experiments:
MOLM-13 cells = test: Proliferation assay, MOLM-13 (CellTiter-Glo, 7 days); format: cell-based, human
Method in brief: (§1)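 Cells seeded at 125 (MOLM-13), 300 (MV4;11), 75 (OCI-AML3) or 200 (HEL) per well were exposed to 3.16-fold compound dilutions (0.1% DMSO) for 7 days at 37° C. Viability by CellTiter-Glo luminescence, normalized to DMSO (100%) and day-0 plate (0%); IC50 from one-site dose-response fit.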

[1] = Caco-2 cell monolayers intrinsic permeation assay in the presence of efflux inhibitors; format: in vitro ADME; conditions: Caco-2, with efflux inhibitors
Source text: Caco-2 cells were obtained from American Type Culture Collection (ATCC). HEPES, penicillin, streptomycin, bovine serum albumin (BSA) were obtained from Beijing Xinjingke Biotechnology Co, Ltd. Fetal bovine serum, Hank's balanced salt solution (HBSS) and non-essential amino acids (NEAA) were purchased from Gibco. Dulbecco's Modified Eagle's Medium (DMEM) was purchased from Corning and MES from Sigma. HTS Transwell-24 permeable supports were purchased from Corning. Zosuquidar and Ko-143 were obtained from MedChemExpress and Benzbromarone from Sigma.
The Caco-2 cell culture medium consisted of DMEM with high glucose and L-glutamine supplemented with 10% FBS, 0.1 mg/mL streptomycin, 100 units of penicillin, 0.6 mg/mL kanamycin sulfate and 1×NEAA. […] culture medium was added to each Transwell insert with 800 mL added to each well of the reservoir. After incubation at 37° C. in 5% CO2 for 1 hour, the plates were ready for seeding.
The cells were cultivated in T-75 flasks at 37° C., 5% CO2, 95% relative humidity. At 80 to 90% confluence, cells were treated with trypsin/EDTA treatment until they became detached. The trypsin/EDTA was inactivated by adding excess serum containing medium. The cell suspension was centrifuged at 120 g for 10 minutes followed by resuspension of the cell pellet in seeding medium at a cell density of 7.92×10^5 cells/mL.
[…] of the resulting cell suspension was added to each well of the Transwell plate and incubated for 14 to 18 days, with medium replaced every other day. After incubation for 14 to 18 days, the cells should have reached confluence and should be tested for electrical resistance using a Millicel Epithelial Volt-Ohm measuring system (Millipore).
The cell monolayers were washed twice with pre-warmed HBSS and incubated at 37° C. for 30 minutes under gentle shaking (480 rpm).
The compound under test was presented as a 10 mM DMSO stock solution. 2 mL of the 10 mM stock was added to 8 mL DMSO to produce a 2 mM stock. 2 mL was added to 398 mL of HBSS containing 10 mM Zosuquidar, 30 mM Benzbromarone and 2 mM KO-143 to make a […] solution.
210 mL of the test compound solution was added to the apical compartment of the Transwell plate, with a 10 mL sample taken to act as the time 0 sample. The wells of the receiver (basolateral) compartment were filled with 800 mL HBSS (containing the efflux inhibitors). The plates were incubated at 37° C. with shaking at 480 rpm for 120 minutes with sampling at 45 and 120 minutes.
At each sampling time (0, 45 and 120 minutes) 10 mL was removed from the apical compartment and add to 90 mL (HBSS containing the efflux inhibitors). 100 mL was removed from each basolateral compartment. 3 volumes of cold acetonitrile containing internal standard was added to each sample and vortex mixed for 10 minutes at 100 rpm. Samples were then centrifuged at 400 rpm for 20 minutes. 50 mL of the supernatant was taken for LC/MS/MS analysis to determine compound concentration.
The apparent permeability (Papp), in units of centimetre per second, were calculated for Caco-2 drug transport using the following equation: […]
Where CR is the concentration of compound in the receiver side at the respective time point, CD is the concentration of compound in the donor side at the respective timepoint. Area is the surface area of the membrane and time is 4500 seconds (75×60 seconds).

HEL cells = test: Proliferation assay, HEL control cell line (CellTiter-Glo, 7 days); format: cell-based, human
Method in brief: as §1

MV4;11 cells = test: Proliferation assay, MV4;11 (CellTiter-Glo, 7 days); format: cell-based, human; conditions: read-out: MV-4-11 IC50
Method in brief: as §1

| SMILES | IC50 (MOLM-13 cells; Homo sapiens, MOLM-13, 168 h) | Papp A→B [1] | IC50 (MV4;11 cells; Homo sapiens, MV4-11, 168 h) | IC50 (HEL cells; Homo sapiens, HEL, 168 h) | IC50 (MOLM-13 cells) | IC50 (HEL cells) | IC50 (MV4;11 cells) |
| --- | --- | --- | --- | --- | --- | --- | --- |
| C=C1C[C@@H]2CC[C@H]1[C@@H](C(=O)N1CCC(C(=O)c3cn(-c4ccc(F)cc4C(=O)N(C(C)C)C(C)C)c4cnccc34)CC1)N2 [Example 18, 5-Fluoro-N,N-diisopropyl-2-(3-(1-((1S,3S,4R)-5-methylene-2-azabicyclo[2.2.2]-octane-3-carbonyl)piperidine-4-carbonyl)-1H-pyrrolo[2,3-c]pyridin-1-yl)benzamide] | 57 nM | 3.1 ×10⁻⁶ cm/s | 44 nM | > 10000 nM | – | – | – |
| CC(C)N(C(=O)c1cc(F)ccc1-n1cc(C(=O)C2CCN(C(=O)[C@@H]3CCC4(CC4)N3)CC2)c2ccncc21)C(C)C [Example 24, (S)-2-(3-(1-(4-Azaspiro[2.4]heptane-5-carbonyl)piperidine-4-carbonyl)-1H-pyrrolo[2,3-c]pyridin-1-yl)-5-fluoro-N,N-diisopropylbenzamide] | 32 nM | 18.2 ×10⁻⁶ cm/s | 20 nM | > 10000 nM | – | – | – |
| C[C@@H]1COC[C@@H](C)N1C(=O)c1cc(F)ccc1-n1cc(C(=O)C2CCN(C(=O)[C@H]3N[C@@H]4CC[C@H]3C4)CC2)c2ccncc21 [Example 34, (1-((1R,3S,4S)-2-Azabicyclo[2.2.1]heptane-3-carbonyl)piperidin-4-yl)(1-(2-((3R,5R)-3,5-dimethylmorpholine-4-carbonyl)-4-fluorophenyl)-1H-pyrrolo[2,3-c]pyridin-3-yl)methanone] | 62 nM | 0.2 ×10⁻⁶ cm/s | 39 nM | > 10000 nM | – | – | – |
| CC(C)(F)c1ncccc1-c1cc(F)ccc1-n1cc(C(=O)C2CN(C(=O)[C@H]3N[C@@H]4CC[C@H]3C4)C2)c2ccncc21 [Example 13, (1-((1R,3S,4S)-2-Azabicyclo[2.2.1]heptane-3-carbonyl)azetidin-3-yl)(1-(4-fluoro-2-(2-(2-fluoropropan-2-yl)pyridin-3-yl)phenyl)-1H-pyrrolo[2,3-c]pyridin-3-yl)methanone] | 51 nM | 1.7 ×10⁻⁶ cm/s | 34 nM | > 10000 nM | – | – | – |
| CCN(C(=O)c1cc(F)ccc1-n1cc(C(=O)C2CCN(C(=O)[C@H]3N[C@H]4C[C@@H]3[C@@H](F)C4)CC2)c2ccncc21)C(C)C [Example 30, N-Ethyl-5-fluoro-2-(3-(1-((1S,3S,4S,5S)-5-fluoro-2-azabicyclo[2.2.1]heptane-3-carbonyl)piperidine-4-carbonyl)-1H-pyrrolo[2,3-c]pyridin-1-yl)-N-isopropylbenzamide] | 44 nM | 0.8 ×10⁻⁶ cm/s | 33 nM | > 10000 nM | – | – | – |
| CCN(C(=O)c1cc(F)ccc1-n1c(C)c(C(=O)C2CCN(C(=O)[C@@H]3CCC4(CC4)N3)CC2)c2ccncc21)C(C)C (single isomer, unassigned) [Example 49-2] | – | 6.3 ×10⁻⁶ cm/s | – | – | 80 nM | > 10000 nM | 34 nM |
| Cc1c(C(=O)[C@@H]2CCN(C(=O)[C@H]3NC[C@@H]4C[C@@H]43)[C@@H](C)C2)c2ccncc2n1-c1ccc(F)cc1C(=O)N(CC(F)(F)F)C(C)C (single isomer, unassigned) [Example 53-3, 2-(3-((2R*,4S*)-1-((1S,2S,5R)-3-Azabicyclo[3.1.0]hexane-2-carbonyl)-2-methylpiperidine-4-carbonyl)-2-methyl-1H-pyrrolo[2,3-c]pyridin-1-yl)-5-fluoro-N-isopropyl-N-(2,2,2-trifluoroethyl)benzamide] | – | 3.6 ×10⁻⁶ cm/s | – | – | 15 nM | > 10000 nM | 13 nM |

Further compounds by falling IC50 (MOLM-13 cells; Homo sapiens, MOLM-13, 168 h), results first:

| IC50 (MOLM-13 cells; Homo sapiens, MOLM-13, 168 h) | Papp A→B [1] | IC50 (MV4;11 cells; Homo sapiens, MV4-11, 168 h) | SMILES | IC50 (HEL cells; Homo sapiens, HEL, 168 h) | IC50 (MOLM-13 cells) | IC50 (HEL cells) | IC50 (MV4;11 cells) |
| --- | --- | --- | --- | --- | --- | --- | --- |
| 111 nM | 0.5 ×10⁻⁶ cm/s | 103 nM | C[C@@H]1CCC[C@H](C)N1C(=O)c1cc(F)ccc1-n1cc(C(=O)C2CCN(C(=O)[C@H]3N[C@@H]4CC[C@H]3C4)CC2)c2ccncc21 [Example 33, (1-((1R,3S,4S)-2-Azabicyclo[2.2.1]heptane-3-carbonyl)piperidin-4-yl)(1-(2-((2R,6S)-2,6-dimethylpiperidine-1-carbonyl)-4-fluorophenyl)-1H-pyrrolo[2,3-c]pyridin-3-yl)methanone] | > 10000 nM | – | – | – |
| 98 nM | 4.2 ×10⁻⁶ cm/s | 53 nM | CC(C)N(C(=O)c1cc(F)ccc1-n1cc(C(=O)C2CN(C(=O)[C@H]3N[C@@H]4CC[C@H]3C4)C2)c2ccnc(F)c21)C(C)C [Example 15, 2-(3-(1-((1R,3S,4S)-2-Azabicyclo[2.2.1]heptane-3-carbonyl)azetidine-3-carbonyl)-7-fluoro-1H-pyrrolo[2,3-c]pyridin-1-yl)-5-fluoro-N,N-diisopropylbenzamide] | > 10000 nM | – | – | – |
| 52 nM | 0.3 ×10⁻⁶ cm/s | 37 nM | CCN(C(=O)c1cc(F)ccc1-n1c(C)c(C(=O)C2CCN(C(=O)[C@H]3N[C@@H]4CC[C@H]3C4)CC2)c2ccncc21)C(C)C [Example 46, 2-(3-(1-((1R,3S,4S)-2-Azabicyclo[2.2.1]heptane-3-carbonyl)piperidine-4-carbonyl)-2-methyl-1H-pyrrolo[2,3-c]pyridin-1-yl)-N-ethyl-5-fluoro-N-isopropylbenzamide] | > 10000 nM | – | – | – |
| 50 nM | 3 ×10⁻⁶ cm/s | 24 nM | CC(C)N(C(=O)c1cc(F)ccc1-n1cc(C(=O)C2CCN(C(=O)[C@H]3NC[C@@H]4CC[C@@H]43)CC2)c2ccncc21)C(C)C (relative stereo) [Example 25, rel-2-(3-(1-((1R,2R,5S)-3-Azabicyclo[3.2.0]heptane-2-carbonyl)piperidine-4-carbonyl)-1H-pyrrolo[2,3-c]pyridin-1-yl)-5-fluoro-N,N-diisopropylbenzamide] | > 10000 nM | – | – | – |
| 40 nM | 1.3 ×10⁻⁶ cm/s | 43 nM | CC(C)c1ncsc1-c1cc(F)ccc1-n1cc(C(=O)C2CCN(C(=O)[C@H]3N[C@@H]4CC[C@H]3C4)CC2)c2ccncc21.O=CO [Example 42, (1-((1R,3S,4S)-2-Azabicyclo[2.2.1]heptane-3-carbonyl)piperidin-4-yl)(1-(4-fluoro-2-(4-isopropylthiazol-5-yl)phenyl)-1H-pyrrolo[2,3-c]pyridin-3-yl)methanone 1·formic acid] | > 10000 nM | – | – | – |
| 34 nM | 2.6 ×10⁻⁶ cm/s | 25 nM | CC(C)N(C(=O)c1cc(F)ccc1-n1cc(C(=O)C2CCN(C(=O)[C@H]3NC[C@@H]4C[C@@H]43)CC2)c2ccncc21)C(C)C [Example 19, 2-(3-(1-((1S,2S,5R)-3-Azabicyclo[3.1.0]hexane-2-carbonyl)piperidine-4-carbonyl)-1H-pyrrolo[2,3-c]pyridin-1-yl)-5-fluoro-N,N-diisopropylbenzamide] | > 10000 nM | – | – | – |
| 34 nM | 1.7 ×10⁻⁶ cm/s | 27 nM | CC(C)N(C(=O)c1cc(F)ccc1-n1cc(C(=O)C2CCN(C(=O)[C@H]3NC[C@@H]4CCC[C@@H]43)CC2)c2ccncc21)C(C)C [Example 21, 5-Fluoro-N,N-diisopropyl-2-(3-(1-((1S,3αR,6αS)-octahydrocyclopenta[c]pyrrole-1-carbonyl)piperidine-4-carbonyl)-1H-pyrrolo[2,3-c]pyridin-1-yl)benzamide] | > 10000 nM | – | – | – |
| 23 nM | 2.6 ×10⁻⁶ cm/s | 24 nM | CC(C)c1ncccc1-c1cc(F)ccc1-n1cc(C(=O)C2CN(C(=O)[C@H]3N[C@@H]4CC[C@H]3C4)C2)c2ccncc21 [Example 10, (1-((1R,3S,4S)-2-Azabicyclo[2.2.1]heptane-3-carbonyl)azetidin-3-yl)(1-(4-fluoro-2-(2-isopropylpyridin-3-yl)phenyl)-1H-pyrrolo[2,3-c]pyridin-3-yl)methanone] | > 10000 nM | – | – | – |
